This is an account of results in ChEMBL document CHEMBL1152790, “Synthesis and pharmacological characterization of beta2-adrenergic agonist enantiomers: zilpaterol” (J Med Chem, 2009).

Experiment [1] addresses T1, Mu-type opioid receptor (Homo sapiens, UniProt P35372). The experiment is described as follows: Antagonist activity at human recombinant mu opioid receptor expressed in AequoScreen cells assessed as aequorin-derived receptor-mediated changes in intracellular calcium levels. The experiment is classed as functional, cell-based. A general note: A change in cytosolic calcium serves as a functional read-out for many receptors and channels.

For experiment [2], the target named is T1, Mu-type opioid receptor. The experiment is described as follows: Agonist activity at human recombinant mu opioid receptor expressed in AequoScreen cells assessed as aequorin-derived receptor-mediated changes in intracellular calcium levels. The format is functional, cell-based.
The target in experiment [3] is Beta-2 adrenergic receptor (Cavia porcellus, UniProt Q8K4Z4).
Beta-2 adrenergic receptor, sequence (Q8K4Z4 whole entry): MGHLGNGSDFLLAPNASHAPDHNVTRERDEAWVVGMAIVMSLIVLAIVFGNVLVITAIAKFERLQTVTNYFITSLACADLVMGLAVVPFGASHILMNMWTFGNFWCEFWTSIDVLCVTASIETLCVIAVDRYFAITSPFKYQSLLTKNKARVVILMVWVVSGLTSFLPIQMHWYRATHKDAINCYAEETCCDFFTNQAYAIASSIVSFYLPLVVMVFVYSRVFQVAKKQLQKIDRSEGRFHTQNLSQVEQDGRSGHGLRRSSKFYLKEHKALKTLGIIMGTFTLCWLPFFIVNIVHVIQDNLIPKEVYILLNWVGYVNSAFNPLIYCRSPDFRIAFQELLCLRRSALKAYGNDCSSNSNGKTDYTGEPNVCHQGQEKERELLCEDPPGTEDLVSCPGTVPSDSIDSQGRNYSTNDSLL
Description: Agonist activity at adrenergic beta2 receptor in guinea pig trachea assessed as relaxation of carbachol-induced tissue contraction
In experiment [4] the target is T1, Mu-type opioid receptor. The experiment is described as follows: Displacement of [3H]DAMGO from human recombinant mu opioid receptor expressed in HEK293 cells by scintillation counting. The format is cell-based. (In general: Displacement assays read how much labelled ligand stays bound in the presence of the test substance.)

Counter-ions that a name gives are not always drawn. The source made the active and inactive calls. No cut-off for these calls is given here.

T1 sequence (P35372 whole entry): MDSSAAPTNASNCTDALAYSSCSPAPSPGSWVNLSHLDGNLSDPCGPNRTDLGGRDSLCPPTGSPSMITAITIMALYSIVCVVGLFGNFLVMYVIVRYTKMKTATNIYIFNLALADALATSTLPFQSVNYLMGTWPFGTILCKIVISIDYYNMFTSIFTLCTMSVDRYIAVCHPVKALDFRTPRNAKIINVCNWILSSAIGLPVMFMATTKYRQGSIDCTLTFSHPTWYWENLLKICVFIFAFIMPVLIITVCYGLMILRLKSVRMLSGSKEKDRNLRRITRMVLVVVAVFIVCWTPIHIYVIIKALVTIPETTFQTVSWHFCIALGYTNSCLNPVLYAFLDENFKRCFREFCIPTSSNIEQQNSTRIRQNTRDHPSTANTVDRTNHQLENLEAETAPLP

One may read the Emax as the greatest response seen or fitted, relative to the assay's reference. A word on the IC50: it is the concentration that gives 50% inhibition. Regarding `CC(C)N[C@H]1CCn2c(=O)[nH]c3cccc(c32)[C@@H]1O`, in experiment [1], the maximal effect (Emax) was determined as 96% and the half-maximal inhibitory concentration (IC50) was determined as 140 µM. Also, the outcome in experiment [2] was inactive. For the molecule `CC(C)N[C@@H]1CCn2c(=O)[nH]c3cccc(c32)[C@H]1O`, the result in experiment [2] was inactive. As to `CC(C)N[C@@H]1CCn2c(=O)[nH]c3cccc(c32)[C@H]1O` (racemic), the Emax in experiment [1] was determined as 93%. The result in experiment [2] was inactive. Broadly, the EC50 is the concentration needed to bring the measured effect to its halfway point. Consider `CC(C)(C)NCC(O)c1cc(Cl)c(N)c(Cl)c1` (racemic) [CLENBUTEROL], for which the EC50 in experiment [3] was determined as 0.013 µM. In general, Ki refers to a measure of affinity in units of concentration, obtained from inhibition or displacement. With `CC(C)N[C@@H]1CCn2c(=O)[nH]c3cccc(c32)[C@H]1O` (racemic) [ZILPATEROL HYDROCHLORIDE], the figures for the IC50 in experiment [1] and in experiment [4] were 300 µM and 31 µM, respectively. The Ki in experiment [4] was 13 µM. `CC(C)N[C@@H]1CCn2c(=O)[nH]c3cccc(c32)[C@H]1O` [ZILPATEROL HYDROCHLORIDE]: the 50% inhibitory concentration (IC50) in experiment [1] was greater than 1000 µM.
